Laboratory results from US20060211887A1, “Phosphate salts of 6-dimethylaminomethyl-1-(3-methoxyphenyl)-1,3-dihydroxy-cyclohexane compounds” (priority 2005, published 2006).
Structures can show the parent of a compound that is named as a salt.

Experiments:
[1] = DVS (dynamic vapor sorption) experiment on the amorphous phosphate salt; format: physicochemical
Source text: The amorphous phosphate salt of I crystallized during a DVS (dynamic vapor sorption) experiment at a relative atmospheric humidity of 45% r.h.

[2] = Storage of the amorphous phosphate salt at 75% r.h.; format: physicochemical; conditions: crystallized after 8 days
Source text: The amorphous phosphate salt crystallized after 8 days on storage at a relative atmospheric humidity of 75% r.h. and formed form A.

SMILES | Relative atmospheric humidity at which the amorphous salt crystallized [1] [% r.h.] | Form formed on storage [2] | Stability of the hydrate formed during the desorption ([1]; desorption)
COc1cccc([C@@]2(O)C[C@H](O)CC[C@@H]2CN(C)C)c1 (racemic) [amorphous phosphate salt of I, (1RS,3RS,6RS)-6-dimethylaminomethyl-1-(3-methoxyphenyl)-cyclohexane-1,3-diol] | 45 | form A | –
COc1cccc([C@@]2(O)C[C@H](O)CC[C@@H]2CN(C)C)c1 (racemic) [form A, (1RS,3RS,6RS)-6-dimethylaminomethyl-1-(3-methoxyphenyl)-cyclohexane-1,3-diol] | – | – | remained stable during the desorption
